From patent publication US9611276B2, “Imidazo bicyclic iminium compounds as antitumor agents” (THE BOARD OF TRUSTEES OF THE LELAND STANFORD JUNIOR …, priority 2012, dated 2017)

Tests used:
[1] = test system: Wnt pathway activity; experiment: Wnt-LIGHT cell assay with Wnt3a-conditioned medium; assay type: cell-based
Method: Wnt-LIGHT cells [see Hyman et al. Proc Natl Acad Sci USA. 2009; 106(33):14132-7], a L-cell-based cell line containing a stably integrated TCF/LCF-dependent firefly luciferase reporter (SuperTopFlash), constitutive Renilla luciferase reporter (pRLSV40, Promega), and geneticin resistance vector (pcDNA3, Invitrogen), were cultured in DMEM (Invitrogen, 11965) containing 10% (v/v) fetal bovine serum (Invitrogen, No. 26140), 400 μg/mL G418 (Invitrogen, 11811) and 1× PenStrep (Gibco, 15140).
(§1) All test compounds were dissolved in DMSO at 50 mM, serially diluted by 1:3, 1:4 or 1:5 in a 96-well translucent microplate (Greiner bio-one, 650201) and stored at −20° C. These serial dilutions were added to assay media freshly with final DMSO concentration of 0.2% (v/v).
The Wnt-LIGHT cell assay provides a measure of Wnt pathway activity. Wnt3a-conditioned medium was prepared by culturing Wnt3a-expressing L cells obtained from ATCC in DMEM (Invitrogen, 11965) containing 10% (v/v) fetal bovine serum (Invitrogen, No. 26140) and 1× PenStrep (Gibco, 15140). […] The cells were lysed with passive lysis buffer (50 μL/well), and 10 μL of the obtained lysate were analyzed for firefly and Renilla luciferase activities using Dual-Luciferase Reporter Assay System (Promega, E1960) (50 μL/well of each reagent) on a microplate luminometer (Veritas). Biological triplicates were analyzed for each test compounds.

[2] = test system: Sufu-KO-LIGHT cells; experiment: Sufu-KO-LIGHT cell assay, cytotoxicity (CellTiter 96 AQueous One); assay type: cell-based, mouse
Method: Sufu-KO-LIGHT cells were derived from Sufu knockout mouse embryonic fibroblasts according to the method of Chen et al. [Genes Dev. 2009; 23(16):1910-28.] The cells were co-transfected with the zeocin resistance vector (pVgRXR, Invitrogen) and a firefly luciferase reporter driven by eight Gli binding sites and a γ-crystallin basal promoter (8XGliBS-FL) [see Sasaki et al. Development. 1997; 124(7):1313-22.2]. […] Sufu-KO-LIGHT cells were cultured in DMEM (Invitrogen, 11965) containing 10% (v/v) fetal bovine serum (Invitrogen, No. 26140), 150 μg/mL zeocin (Invitrogen, R250-01), 1 mM sodium pyruvate (Invitrogen, 11360) and 1× PenStrep (Gibco, 15140).
as §1
The Sufu-KO-LIGHT cell assay provides a measure of Hh pathway activity and cytotoxicity. […] Bright Glo (Promega, E2620) reagent (50 μL/well) was added to the cells, and luciferase activities were determined on a microplate luminometer (Veritas). […] Cell viability was determined by measuring absorption at 490 nm after 1 hr of incubation on a microplate spectrophotometer (Benchmark Plus, Bio-Rad). Biological triplicates were analyzed for each test compounds.

[3] = molecular target: Gli2 (Homo sapiens, UniProt P10070); experiment: Overexpression of Gli2 in NIH-3T3 cells, firefly luciferase reporter; assay type: cell-based; set-up: expressed in transfected cells; host or cells: NIH-3T3 (mouse fibroblasts)
Chain of Gli2 (P10070 whole entry, species assumed): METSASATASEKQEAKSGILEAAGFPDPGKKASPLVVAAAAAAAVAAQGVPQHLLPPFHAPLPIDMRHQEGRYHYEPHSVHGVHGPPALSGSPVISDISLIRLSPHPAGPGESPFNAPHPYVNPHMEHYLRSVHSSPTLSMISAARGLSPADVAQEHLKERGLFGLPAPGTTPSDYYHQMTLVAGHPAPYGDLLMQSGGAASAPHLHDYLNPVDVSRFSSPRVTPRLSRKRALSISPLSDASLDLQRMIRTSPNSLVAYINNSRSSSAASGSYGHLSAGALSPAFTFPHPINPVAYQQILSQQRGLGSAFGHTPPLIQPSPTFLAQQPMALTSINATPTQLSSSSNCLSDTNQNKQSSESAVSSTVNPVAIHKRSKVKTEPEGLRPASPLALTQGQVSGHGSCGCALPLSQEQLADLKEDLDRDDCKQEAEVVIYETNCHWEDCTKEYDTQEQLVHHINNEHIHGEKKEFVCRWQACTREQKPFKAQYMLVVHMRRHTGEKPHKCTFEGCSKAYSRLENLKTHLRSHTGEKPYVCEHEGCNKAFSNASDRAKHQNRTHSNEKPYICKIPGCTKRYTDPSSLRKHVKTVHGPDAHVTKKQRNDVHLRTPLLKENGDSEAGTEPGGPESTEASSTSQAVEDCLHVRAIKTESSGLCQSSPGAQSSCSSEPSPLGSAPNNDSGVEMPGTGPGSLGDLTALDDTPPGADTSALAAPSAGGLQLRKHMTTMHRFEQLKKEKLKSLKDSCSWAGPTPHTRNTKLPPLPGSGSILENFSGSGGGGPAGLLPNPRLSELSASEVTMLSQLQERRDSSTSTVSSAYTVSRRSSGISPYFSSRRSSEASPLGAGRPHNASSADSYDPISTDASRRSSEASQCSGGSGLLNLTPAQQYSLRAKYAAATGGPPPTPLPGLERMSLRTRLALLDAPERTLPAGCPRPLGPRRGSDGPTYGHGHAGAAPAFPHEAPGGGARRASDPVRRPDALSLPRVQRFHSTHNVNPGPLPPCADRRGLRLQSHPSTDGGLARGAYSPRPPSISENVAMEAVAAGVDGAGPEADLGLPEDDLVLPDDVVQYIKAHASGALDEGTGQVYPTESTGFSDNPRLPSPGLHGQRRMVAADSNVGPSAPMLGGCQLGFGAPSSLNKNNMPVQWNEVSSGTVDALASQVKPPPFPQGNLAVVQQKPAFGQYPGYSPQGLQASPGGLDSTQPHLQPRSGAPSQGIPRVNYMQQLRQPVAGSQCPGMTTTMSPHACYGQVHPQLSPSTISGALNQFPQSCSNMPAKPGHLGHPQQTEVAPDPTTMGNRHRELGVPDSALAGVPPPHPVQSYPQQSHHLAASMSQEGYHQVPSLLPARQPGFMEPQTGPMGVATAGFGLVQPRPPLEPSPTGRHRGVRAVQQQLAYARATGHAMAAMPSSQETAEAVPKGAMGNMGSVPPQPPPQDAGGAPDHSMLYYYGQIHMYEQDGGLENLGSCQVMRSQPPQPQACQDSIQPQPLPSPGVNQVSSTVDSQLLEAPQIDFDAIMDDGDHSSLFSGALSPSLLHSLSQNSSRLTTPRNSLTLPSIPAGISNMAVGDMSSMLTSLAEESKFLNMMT
Method: (§2) NIH-3T3 cells were obtained from ATCC and cultured in DMEM (Invitrogen, 11965) containing 10% (v/v) calf serum (ATCC, 30-2030), 1 mM sodium pyruvate (Invitrogen, 11360) and 1× PenStrep (Gibco, 15140).
as §1
Overexpression of Gli1 or Gli2 in NIH-3T3 cells provides a measure of Gli1- or Gli1/Gli2-induced pathway activity, respectively. NIH 3T3 cells were seeded into a 24-well plate (35,000 cells/well) and cultured for 30 hrs. […] The cells were lysed with passive lysis buffer (200 μL/well), and 10 μL of the obtained lysate were analyzed for firefly and Renilla luciferase activities using Dual-Luciferase Reporter Assay System (Promega, E1960) (50 μL/well of each reagent) on a microplate luminometer (Veritas). Biological triplicates were analyzed for each test compounds.

[4] = test system: endogenous Hh target gene expression (Gli1 mRNA); experiment: Gli1 mRNA levels in NIH-3T3 cells with ShhN; assay type: cell-based
Method: as §2, §1
Quantification of Gli1 mRNA levels in NIH-3T3 cells provides a measure of endogenous Hh target gene expression. NIH 3T3 cells were seeded into 96-well plates (36,000 cells/well), cultured to confluency for 24 hrs and then incubated with test compounds in DMEM (Invitrogen, 11965) containing 0.5% (v/v) calf serum (ATCC, 30-2030), 1 mM sodium pyruvate (Invitrogen, 11360), 1× PenStrep (Gibco, 15140) and 10% (v/v) ShhN-conditioned medium for 24 hrs. The cells were lysed and the lysate was used to prepare cDNA using a Cells-to-CT kit (Ambion) according to the manufacturer's protocols. The cDNA was then quantified with Gli1 and GAPDH Taqman probes (Mm00494645m1 and Mm99999914g1, Applied Biosystems) on a Roche Lightcycler 480, using the 2nd derivative/maximum method to obtain Ct values. Biological triplicates were analyzed for each test compounds.

CCOc1ccc(-[n+]2cc(-c3ccc(Br)cc3)n3c2CCCCC3)cc1 [Compound A-1]
Inhibition of Wnt signaling [1]: did not inhibit Wnt signaling
IC50, firefly luciferase ([1]; Wnt-LIGHT w/ Wnt3a): No inhibition
General cytotoxicity [2]: not generally cytotoxic
IC50, cytotoxicity ([2]; Sufu-KO-LIGHT cells): No toxicity
Hh reporter expression induced by exogenous Gli2 [3]: only partially inhibited
ShhN-dependent expression of endogenous target genes (Gli1) [4]: inhibited
IC50 ([4]; Mus musculus, NIH3T3, NIH-3T3 w/ ShhN): 5 µM
